The Ki is the dissociation constant of the complex between target and ligand, obtained from inhibition or displacement. High values mean lower affinity, low ones higher affinity.

The species entered for series [1] is Rattus norvegicus. The experiment in a line: Biodistribution of the [18F]-radiolabeled compound in rat cerebellum. The series is classed as ADME, organism-based. The conditions noted are these: in vivo.
The species entered for series [2] is Rattus norvegicus. Description: Biodistribution of the [18F]-radiolabeled compound in rat cortex. The conditions noted are these: in vivo. The series is classed as ADME, organism-based.
The species entered for series [3] is Rattus norvegicus. The experiment in a line: Biodistribution of the [18F]-radiolabeled compound in rat hippocampus. Particulars: in vivo. The format is ADME, organism-based.
The species named for series [4] is Rattus norvegicus. The experiment in a line: Biodistribution of the [18F]-radiolabeled compound in rat hypothalamus. The series is classed as ADME, organism-based. Particulars: in vivo.
In series [5] the target is T1, 5-hydroxytryptamine receptor 1A (Homo sapiens, UniProt P08908).
T1 sequence (P08908 whole entry): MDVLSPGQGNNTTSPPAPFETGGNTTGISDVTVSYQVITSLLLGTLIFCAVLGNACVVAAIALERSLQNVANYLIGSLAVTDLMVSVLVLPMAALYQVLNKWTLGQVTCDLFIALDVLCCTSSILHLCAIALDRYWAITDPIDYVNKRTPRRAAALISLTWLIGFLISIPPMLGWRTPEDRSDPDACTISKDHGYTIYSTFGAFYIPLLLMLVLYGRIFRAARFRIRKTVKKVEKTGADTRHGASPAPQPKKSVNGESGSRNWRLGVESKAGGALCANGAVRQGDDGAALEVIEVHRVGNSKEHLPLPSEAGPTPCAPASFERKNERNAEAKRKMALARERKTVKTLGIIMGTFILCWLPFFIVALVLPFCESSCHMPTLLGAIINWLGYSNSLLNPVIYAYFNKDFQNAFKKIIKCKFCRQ
Description: In vitro inhibition of [3H]- 8-OH-DPAT binding to cloned cell line containing human 5-hydroxytryptamine 1A receptor by Panlabs assay.

Series [6] concerns the target T1, 5-hydroxytryptamine receptor 1A. Description: In vitro inhibition of [3H]- 8-OH-DPAT binding to cloned cell line containing human 5-hydroxytryptamine 1A receptor.
The target is the same in series [7]. Description: In vitro inhibition of [3H]- 8-OH-DPAT binding to cloned cell line containing human 5-hydroxytryptamine 1A receptor (Experiment 1).
For series [8] the target is unchanged. The experiment in a line: In vitro inhibition of [3H]- 8-OH-DPAT binding to cloned cell line containing human 5-hydroxytryptamine 1A receptor (Experiment 2).

Turning to `COc1ccccc1N1CCN(CCN(C(=O)c2ccc(F)cc2)c2ccccn2)CC1`, the ID/g in series [1] came to 0.034%; in series [2] it was 0.085%; in series [3], 0.195%; in series [4], 0.066%.

In the case of `COc1ccccc1N1CCN(CCN(C(=O)C2CCC(F)CC2)c2ccccn2)CC1` (stereo unspecified), the inhibitory constant (Ki) in series [5] came to 0.247 nM; in series [6], 0.515 nM. Further, the ID/g is reported as 0.064% in series [1], 0.823% in series [2], 1.298% in series [3] and 0.499% in series [4].

Turning to `COc1ccccc1N1CCN(CCN(C(=O)c2ccc(F)c(C)c2)c2ccccn2)CC1`, the Ki in series [7] is 3.96 nM; in series [8], 1.14 nM; in series [5], 0.791 nM. Further, the ID/g was determined as 0.02% in series [1], 0.047% in series [2] and 0.118% in series [3].

The values are drawn from ChEMBL document CHEMBL1132717, “Development of fluorine-18-labeled 5-HT1A antagonists” (J Med Chem, 1999).
